Source: patent publication US20180071367A1, “METHODS OF TREATING COGNITIVE IMPAIRMENTS OR DYSFUNCTION” (Oxeia Biopharmaceuticals, Inc., priority 2015, published 2018)
Where no end group is shown, it is not given here. The star is where a group is joined. Octanoyl = CCCCCCCC(=O)*

Assays:
[1] = tested on: oxidative burst in inflammatory cells; assay: Oxidative burst (ROS) in inflammatory cells from brain tissue after mild brain injury (controlled cortical impact); type: in vivo; conditions: C57/B6 mice, mild BI by controlled cortical impactor, subcutaneous treatment, leukocytes isolated from brain tissue, DHR 123 flow cytometry, compared to mBI
Procedure: Ghrelin variant administration reduces oxidative burst in inflammatory cells following mild BI. Since no well-accepted animal model exists for concussions, a very small cerebral lesion that closely mimics mild BI is used as a model of mild BI. C57/B6 mice anesthetized with 5% isoflurane in oxygen (1.7 L/min) are given 0.3 mg/kg buprenorphine subcutaneously for analgesia prior to infliction of the mild brain injury. Anesthesia is assessed by paw pinch reflex. After creating a burr hole through the dura with a dental drill, a lesion using a controlled cortical impactor (CCI) is used to create injury 1 mm lateral and posterior to the bregma (5.0 mm/sec at a depth of 1.0 mm).
Animals are separated into three treatment groups: 1) Sham, 2) mild BI, and 3) mild BI plus ghrelin variant. A variety of doses can be tested depending upon the particular ghrelin variant. For example, 1 to 50 μg at one or more time points. As one example, treatment with subcutaneous ghrelin variant: 1 dose of 10 μg following mild BI and additional dose 10 μg 1 hour after. […] The fluorescence is then measured (AFU), higher intensity means greater oxidative burst and, therefore greater concentration or amount of ROS. […] Oxidative burst, which is a marker for ROS, can be measured by respiratory burst using flow cytometry (e.g., FL1 channel with 488-nm laser).

GHS-R = GHS-R (Homo sapiens, UniProt Q92847); assay: GHS-R antagonist activity, cell based assay (Table 3); conditions: GHS-R antagonist activity in a cell based assay
Chain of GHS-R (Q92847 whole entry): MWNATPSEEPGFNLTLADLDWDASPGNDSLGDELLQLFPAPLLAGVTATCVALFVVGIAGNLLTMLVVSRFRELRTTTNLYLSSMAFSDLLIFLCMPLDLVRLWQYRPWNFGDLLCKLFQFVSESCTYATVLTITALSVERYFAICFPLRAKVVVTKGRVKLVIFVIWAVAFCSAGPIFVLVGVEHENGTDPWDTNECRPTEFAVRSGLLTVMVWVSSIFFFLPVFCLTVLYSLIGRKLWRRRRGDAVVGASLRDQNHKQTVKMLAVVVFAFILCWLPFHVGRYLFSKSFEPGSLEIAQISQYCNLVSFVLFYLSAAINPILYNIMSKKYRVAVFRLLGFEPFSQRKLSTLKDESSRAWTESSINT

Row | Molecule | oxidative burst in inflammatory cells following mBI, quantified by arbitrary fluorescence unit (AFU) [1] | Ki (GHS-R) [nM]
1 | ghrelin (GSS(Octanoyl)FLSPEHQRVQQRKESKKPPAKLQPR) | reduced the oxidative burst compared to mBI | –
2 | CCN(CC)CCCS(=O)(=O)N[C@H](CCc1ccccc1)c1nc(-c2cncn2C)n[nH]1 [Compound 135] | – | < 100
